Measurements from PMC9884962, “Pigments of aminophenoxazinones and viridomycins produced by termite-associated Streptomyces tanashiensis BYF-112” (Frontiers in Microbiology, 2023).
≈ marks a conversion by molar mass, not a printed value. Where “and” joins values, the source holds several entries; their conditions need not be identical. Identical values can stand only once. Like-named read-outs stand apart in the source and are kept apart here.

How the values were obtained:
Type in all cases: cell-based
[1] = tested on: human malignant melanoma cell line (A375); assay: MTT cytotoxicity assay, A375; conditions: A-375, 48 h exposure, read-out: Cytotoxic activity IC50, A375
Description: (§1) The metabolites 1–4 were evaluated for their cytotoxic activities against human malignant melanoma cell line (A375), human ovarian cancer cell line (SKOV-3), human breast cancer cell line (MDA-MB231), human gastric cancer cell line (MGC-803) and human normal cell line (L-02) with the MTT method ([Wang et al., 2022]). The cell lines were maintained in Dulbecco’s modified eagle medium (DMEM) supplemented with 10% fetal bovine serum (FBS) along with 1% penicillin and streptomycin. Cells were grown at 37°C in an atmosphere with 5% CO2 and then seeded in 96-well plates and permitted to grow for 20 h. Then tested compounds at preset concentrations were added. The 3-(4,5-dimethylthiazol-2-yl)-2,5-diphenyltetrazolium bromide (MTT; 20 μl, 5 mg/ml) was added into each well after a 48 h exposure period. After an additional 4 h further incubation, the medium was replaced by DMSO (150 μl), then shaking the plates for 15 min. The absorbance at 490 nm were recorded. The percentage of cell viability was calculated using the following formula: Cell viability (%) = the OD of tested group/the OD of CK × 100%. Finally, IC50 values were determined by EXCEL. The azithromycin was used as positive control.

[2] = tested on: human ovarian cancer cell line (SKOV-3); assay: MTT cytotoxicity assay, SKOV-3; conditions: SK-OV-3, 48 h exposure, read-out: Cytotoxic activity IC50, SKOV-3
Description: as §1

[3] = tested on: human breast cancer cell line (MDA-MB231); assay: MTT cytotoxicity assay, MDA-231; conditions: MDA-MB-231, 48 h exposure, read-out: Cytotoxic activity IC50, MDA-231
Description: as §1

[4] = tested on: human gastric cancer cell line (MGC-803); assay: MTT cytotoxicity assay, MGC-803; conditions: 48 h exposure, read-out: Cytotoxic activity IC50, MGC-803
Description: as §1

[5] = MTT cytotoxicity assay, L-02; conditions: human, L-02 normal liver cells, 48 h exposure, normal cell line, read-out: Cytotoxic activity IC50, L-02
Description: as §1

[6] = tested on: Escherichia coli (ATCC8739); assay: Filter paper disc diffusion, E. coli; conditions: 30 μg/filter paper (6 mm disc), 37°C, 12 h; dash = No inhibited
Description: (§2) The Staphylococcus aureus (ATCC6538), methicillin-resistant S. aureus (MRSA, SA2), Escherichia coli (ATCC8739) and Micrococcus tetragenus (ATCC35098) donated by Professor Ting Xue from Anhui Agricultural university were used as a target pathogen for the examination of antibacterial activity of the metabolites. The disc diffusion ([Özogul et al., 2022]) and minimum inhibitory concentrations (MICs; [Cui et al., 2022]) methods were performed to evaluate the antibacterial activities of the new natural metabolites 1, 2, and 4. Filter paper disks (6 mm) with metabolite dissolved in DMSO in a concentration (30 μg/filter paper) were added to the culture medium, and the plates were incubated at 37°C for 12 h. Filter papers with DMSO and levofloxacin were set as negative and positive controls, respectively. All experiments were performed in triplicate, and data were shown as mean values standard deviation. And the MICs of the compounds were determined by the method as we previously described ([Cui et al., 2022]).

[7] = tested on: Micrococcus tetragenus (ATCC35098); assay: Filter paper disc diffusion, M. tetragenus; conditions: 30 μg/filter paper (6 mm disc), 37°C, 12 h, dash = No inhibited
Description: as §2

[8] = tested on: Staphylococcus aureus (ATCC6538); assay: Filter paper disc diffusion, S. aureus; conditions: 30 μg/filter paper (6 mm disc), 37°C, 12 h, dash = No inhibited
Description: as §2

[9] = tested on: methicillin-resistant S. aureus (MRSA, SA2); assay: Filter paper disc diffusion, MRSA; conditions: 30 μg/filter paper (6 mm disc), 37°C, 12 h, dash = No inhibited
Description: as §2

[10] = tested on: Escherichia coli (ATCC8739); assay: Minimum inhibitory concentration assay, E. coli
Description: as §2

[11] = tested on: Micrococcus tetragenus (ATCC35098); assay: Minimum inhibitory concentration assay, M. tetragenus; conditions: for MIC: Micrococcus, ATCC35098
Description: as §2

[12] = tested on: Staphylococcus aureus (ATCC6538); assay: Minimum inhibitory concentration assay, S. aureus; conditions: for MIC: Staphylococcus aureus, ATCC6538
Description: as §2

[13] = tested on: methicillin-resistant S. aureus (MRSA, SA2); assay: Minimum inhibitory concentration assay, MRSA
Description: as §2

[14] = tested on: human cancer cell lines (A375, SKOV-3, MDA-231 and MGC-803); assay: MTT cytotoxicity assay, tested human cancer cell lines together; conditions: range over A375, SKOV-3, MDA-231 and MGC-803, read-out: IC50 values against the tested human cancer cell lines
Description: as §1

[15] = Staphylococcus aureus, MRSA; read-out: Minimum inhibitory concentration (MIC), MRSA

Molecule | IC50 [1] [µM] | IC50 [2] [µM] | IC50 [3] [µM] | IC50 [4] [µM] | IC50 at 48 h [5] [µM] | Zone of inhibition (ZOI), Escherichia coli [6] | Zone of inhibition (ZOI), Micrococcus tetragenus [7] | Zone of inhibition (ZOI), Staphylococcus aureus [8] | Zone of inhibition (ZOI), MRSA [9] | MIC [10] [µg/mL] | MIC [11] [µg/mL] | MIC [12] [µg/mL] | MIC [13, 15] [µg/mL] | other results
CC(=O)OCc1ccc2oc3cc(=O)c(NC4OC(CO)C(O)C(O)C4O)cc-3nc2c1 (centres unmarked) [Compound 4, exfoliazoneglycoside] | > 100 | > 100 | > 100 | > 100 | > 100 | –^b | –^b | –^b | –^b | > 100 | > 100 | > 100 | > 100 | 
gentamycin sulfate [reference compound] |  |  |  |  |  |  |  |  |  |  |  |  |  | Minimum inhibitory concentration (MIC), Micrococcus tetragenus [11]: 3.13 µg/mL; Minimum inhibitory concentration (MIC), Staphylococcus aureus [12]: 3.13 µg/mL; Minimum inhibitory concentration (MIC), MRSA [13]: 6.25 µg/mL
CC(=O)OCc1ccc2oc3cc(=O)c(N)cc-3nc2c1 [Compound 2, exfoliazone B] | > 100 | 75.8 ± 5.77 | > 100 | 69.9 ± 1.94 | > 100 | –^b | –^b | –^b | –^b | > 100 | 50 (≈ 176 µM) | > 100 | > 100 | 
Nc1cc2nc3cc(CO)ccc3oc-2cc1=O [Compound 1, 2-amino-8-hydroxymethyl-3H-phenoxazin-3-one] | 67.7 ± 4.31 | 22.3 ± 3.78 | 55.9 ± 7.47 | 50.2 ± 7.01 | 72 ± 7.22 | –^b | 15.3 mm and 15. mm and 15.3 ± 0.2 mm | 17.2 mm and 17.2 ± 0.2 mm | 15.3 mm and 15.3 ± 0.1 mm | > 100 | 12.5 (≈ 51.6 µM) | 12.5 (≈ 51.6 µM) | 25 (≈ 103 µM) | Minimum inhibitory concentration (MIC), Staphylococcus aureus [12]: 12.5 µg/mL (≈ 51.6 µM); IC50 [14]: 22.3 to 67.7 µM
C[C@H]1COc2c(N3CCN(C)CC3)c(F)cc3c(=O)c(C(=O)O)cn1c23 [Levofloxacin, levofloxacin, reference compound] |  |  |  |  |  | 33.0 ± 1.0 mm | 24.8 ± 0.6 mm | 28.9 ± 0.8 mm | 15.2 ± 0.1 mm | 3.13 (≈ 8.66 µM) | 3.13 (≈ 8.66 µM) | 3.13 (≈ 8.66 µM) |  | Zone of inhibition (ZOI), Micrococcus tetragenus ([7]; listed as levofloxacin): 24.8 mm; Zone of inhibition (ZOI), Staphylococcus aureus ([8]; listed as levofloxacin): 28.9 mm; Zone of inhibition (ZOI), MRSA ([9]; listed as levofloxacin): 15.2 mm; MIC ([13]; Staphylococcus aureus, MRSA, read-out: Minimum inhibitory concentration (MIC), MRSA): 6.25 µg/mL (≈ 17.3 µM)
CC[C@H]1OC(=O)[C@H](C)[C@@H](O[C@H]2C[C@@](C)(OC)[C@@H](O)[C@H](C)O2)[C@H](C)[C@@H](O[C@@H]2O[C@H](C)C[C@H](N(C)C)[C@H]2O)[C@](C)(O)C[C@@H](C)CN(C)[C@H](C)[C@@H](O)[C@]1(C)O [Azithromycin, azithromycin, reference compound] | 0.79 ± 0.13 | 0.41 ± 0.12 | 4.03 ± 0.43 | 1.57 ± 0.03 | 7.34 ± 1.15 |  |  |  |  |  |  |  |  | 
CC(=O)Nc1cc(CNc2cc3nc4cc(CO)ccc4oc-3cc2=O)ccc1O [Compound 3, exfoliazone C] | > 100 | > 100 | > 100 | > 100 | > 100 |  |  |  |  |  |  |  |  | 
